Experimental data as given in patent US20110124069A1, “PRODUCTION METHOD” (priority 2008, published 2011).

Assays:
E. coli MG1655 [1] = assay: Biomass production of E. coli MG1655 on crude or pure glycerol; type: cell-based; details: oxic conditions, unregulated pH, cultivation tubes
Procedure: E. coli was cultured in a defined minimal medium that was designed to contain low levels of phosphate, since phosphate is a known inhibitor of methyglyoxal synthase. Per liter, the medium contained: E. coli strains were routinely propagated in cultivation tubes (total volume 30 ml. Inoculum 5 ml) or glass bottles sealed with rubber-stoppers (total volume 12 ml, inoculum 10 ml) for creating semi-anoxic conditions. The term “cultivation under oxic conditions” implies cultivation in non-sealed containments with agitation. Semi-anoxic in that context means cultivation of strains without agitation in medium that was prepared under oxic conditions and in closed containments, e.g. bottles sealed with rubber-stoppers upon inoculation to avoid diffusing in of external oxygen. Cultivation times varied between 2 and 5 days, for oxic and semi-anoxic conditions, respectively. […] [table]

E. coli MG1655 [2] = assay: Potential of impurities in crude glycerol to substitute for macro-elements of minimal medium (biomass production); type: cell-based; details: glycerol 10 g/l, oxic, unregulated pH
[3] = system: E. coli DH5alpha araB-knockout; assay: Growth on glucose or glycerol as carbon source, control strain; type: cell-based; details: no plasmid, carbon source 10 g/l, 37° C., oxic, 5 days
Source text: (§1) Genes gldA from E. coli encoding […], dhaK from Citrobacter freundii encoding dihydroxyacetone kinase (dhaK) and fucO from E. coli encoding propanediol-oxidoreductase were cloned in plasmid pB2araJ to give plasmid pDP_gdf. Plasmid pDP_mgdf additionally contains methylglyoxal synthase from E. coli. According to known biochemical pathways, propanediol oxidoreductase is not relevant for this example. However, we tested plasmid pDP_gdf and its derivative, pDP_mgdf for functional complementation of a glpK-knock out, since these plasmids are relevant for recombinant 1,2-PD production.
(§2) Thus, an inducible unregulated pathway independent of the endogenous route to metabolise glycerol was established. The biomass finally obtained is equal or even higher compared to growth of a control strain (DH5alpha[…]araB) or when glucose is the substrate for growth.

[4] = system: E. coli DH5alpha araB glpK mutant; assay: Growth on glucose or glycerol as carbon source, glpK mutant; type: cell-based; details: no plasmid, carbon source 10 g/l, 37° C., oxic, 5 days
Source text: as §1, §2

[5] = system: E. coli DH5alpha araB glpK mutant with plasmid pDP_gdf; assay: Growth on glucose or glycerol as carbon source, glpK mutant with plasmid pDP_gdf; type: cell-based; details: carbon source 10 g/l, 37° C., oxic, 5 days
Source text: as §1, §2

[6] = system: E. coli DH5alpha araB glpK mutant with plasmid pDP_mgdf; assay: Growth on glucose or glycerol as carbon source, glpK mutant with plasmid pDP_mgdf; type: cell-based; details: carbon source 10 g/l, 37° C., oxic, 5 days
Source text: as §1, §2

E. coli MG1655 wild-type = assay: Toxicity of methylglyoxal, growth inhibition of wild-type; type: cell-based; details: minimal medium with pure glycerol 10 g/l; microtiterplates, 37° C.; OD580 48.5 h after inoculation
Procedure: (§3) E. coli MG1655 wild-type or mutants inactivated in the genes gloA and gloB, respectively, were cultivated in minimal-medium with pure-glycerol (10 g/l) as source for carbon and energy containing different amounts of methylglyoxal. Tests for methylglyoxal indicated a period of at least 72 h of chemical stability. E. coli was cultivated in microtiterplates without agitation at 37° C. under a humid atmosphere. Growth was determined at OD580 48.5 h after inoculation (FIG. 1; black bars, E. coli MG1655 wild-type; grey bars, E. coli MG1655 gloA-mutant; hatched bars, E. coli MG1655 gloB-mutant).

[7] = system: E. coli MG1655 gloA-mutant; assay: Toxicity of methylglyoxal, growth inhibition of gloA-mutant; type: cell-based; details: gloA (glyoxylase I) mutant, especially sensitive; OD580 48.5 h after inoculation
Procedure: as §3

[8] = system: E. coli MG1655 gloB-mutant; assay: Toxicity of methylglyoxal, growth inhibition of gloB-mutant; type: cell-based; details: OD580 48.5 h after inoculation
Procedure: as §3

[9] = Chemical stability of methylglyoxal; type: physicochemical
Procedure: as §3

OCC(O)CO [pure glycerol, glycerol]
Biomass production [OD580] Ø (E. coli MG1655 [1]; substrate 0.63 g/l): 0.5 OD580 | Biomass production [OD580] Ø (E. coli MG1655 [1]; substrate 1.25 g/l): 0.6 OD580 | Biomass production [OD580] Ø (E. coli MG1655 [1]; substrate 2.5 g/l): 1.2 OD580 | Biomass production [OD580] Ø (E. coli MG1655 [1]; substrate 10 g/l): 5.0 OD580 | Biomass production [OD580] Ø (E. coli MG1655 [1]; substrate 20 g/l): 6.0 OD580 | Biomass production [OD580] Ø (E. coli MG1655 [1]; substrate 40 g/l): 5.7 OD580 | Biomass production [OD580] Ø (E. coli MG1655 [2]; culture broth devoid of nitrogen): 1.1 OD580 | Biomass production [OD580] Ø (E. coli MG1655 [2]; culture broth devoid of none): 2.5 OD580 | Biomass production [OD580] Ø (E. coli MG1655 [2]; culture broth devoid of phosphate): 1.2 OD580 | Biomass production [OD580] Ø (E. coli MG1655 [2]; culture broth devoid of sulfate): 1.0 OD580 | Biomass production [OD580] Ø (E. coli MG1655 [2]; culture broth devoid of trace-elements): 2.4 OD580 | Biomass production OD580 [3]: 2.0 OD580 | Biomass production OD580 [4]: 0.1 OD580 | Biomass production OD580 [5]: 4.5 OD580 | Biomass production OD580 [6]: 5.5 OD580

CC(=O)C=O [methylglyoxal]
extracellular concentration of methylglyoxal at which inhibition of growth was observed (E. coli MG1655 wild-type): ≥ 2.5 mM | sensitivity of growth to methylglyoxal compared with wild-type [7]: significantly more sensitive | sensitivity of growth to methylglyoxal compared with wild-type [8]: significantly more sensitive | period of chemical stability [9]: at least 72 h
